# Assay results published in ChEMBL document CHEMBL3046147, “Synthesis and Herbicidal Activity of 1-Arylalkyl-3-pyrrolin-2-one Derivatives” (J Pestic Sci, 2000).
# Calls of active or inactive are those of the source. No cut-off for these calls is given here.
# Experiments:
# Echinochloa oryzicola [1] = experiment: Pre-emergence herbicide activity against Echinochloa oryzicola under greenhouse condition measured after 14 to 20 days; format: functional
# Echinochloa oryzicola [2] = experiment: Herbicidal activity against Echinochloa oryzicola grown in water-drained pot under greenhouse condition assessed as growth inhibition at 125 g /ha measured after 6 days; format: functional, organism-based
# Echinochloa oryzicola [3] = experiment: Herbicidal activity against Echinochloa oryzicola grown in water-drained pot under greenhouse condition assessed as growth inhibition at 500 g /ha measured after 27 days; format: functional, organism-based
# Sagittaria pygmaea [4] = experiment: Herbicidal activity against Sagittaria pygmaea at 1000 g /ha treated at 0.5 to 1-leaf stage measured after 26 days by outdoor concrete pot test; format: functional, organism-based
# Echinochloa oryzicola [5] = experiment: Herbicidal activity against Echinochloa oryzicola grown in water-drained pot under greenhouse condition assessed as growth inhibition at 500 g /ha measured after 6 days; format: functional, organism-based
# Echinochloa oryzicola [6] = experiment: Herbicide activity against Echinochloa oryzicola under greenhouse condition compound treated at 2 leaf-stage measured after 14 to 20 days; format: functional
# Echinochloa oryzicola [7] = experiment: Herbicidal activity against Echinochloa oryzicola under greenhouse condition assessed as growth inhibition at 250 g /ha measured after 42 days; format: functional, organism-based
# Echinochloa oryzicola [8] = experiment: Herbicidal activity against Echinochloa oryzicola grown in water-drained pot under greenhouse condition assessed as growth inhibition at 125 g /ha measured after 13 days; format: functional, organism-based
# Pontederia vaginalis [9] = experiment: Herbicidal activity against Monochoria vaginalis at 250 g /ha treated at 1.5 to 2-leaf stage measured after 26 days by outdoor concrete pot test; format: functional, organism-based
# Echinochloa oryzicola [10] = experiment: Herbicidal activity against Echinochloa oryzicola under greenhouse condition assessed as growth inhibition at 1000 g /ha measured after 20 days; format: functional, organism-based
# Cyperus serotinus [11] = experiment: Herbicidal activity against Cyperus serotinus at 1000 g /ha treated at 1 to 1.5-leaf stage measured after 26 days by outdoor concrete pot test; format: functional, organism-based
# Pontederia vaginalis [12] = experiment: Herbicidal activity against Monochoria vaginalis at 1000 g /ha treated at 1.5 to 2-leaf stage measured after 26 days by outdoor concrete pot test; format: functional, organism-based
# Echinochloa oryzicola [13] = experiment: Herbicidal activity against Echinochloa oryzicola under greenhouse condition assessed as growth inhibition at 500 g /ha measured after 13 days; format: functional, organism-based
# Echinochloa oryzicola [14] = experiment: Herbicidal activity against Echinochloa oryzicola under greenhouse condition assessed as growth inhibition at 250 g /ha measured after 20 days; format: functional, organism-based
# Rotala indica [15] = experiment: Herbicidal activity against Rotala indica at 500 g /ha treated at 1 to 2-pairs of leaf stage measured after 26 days by outdoor concrete pot test; format: functional, organism-based
# Echinochloa oryzicola [16] = experiment: Herbicidal activity against Echinochloa oryzicola under greenhouse condition assessed as time duration of residual effect at 125 g /ha; format: functional
# Echinochloa oryzicola [17] = experiment: Herbicidal activity against Echinochloa oryzicola under greenhouse condition assessed as growth inhibition at 500 g /ha measured after 27 days; format: functional, organism-based
# Elatine triandra = experiment: Herbicidal activity against Elatine triandra at 500 g /ha treated at 1 to 2-pairs of leaf stage measured after 26 days by outdoor concrete pot test; format: functional, organism-based
# Echinochloa oryzicola [18] = experiment: Herbicidal activity against Echinochloa oryzicola under greenhouse condition assessed as growth inhibition at 125 g /ha measured after 33 days; format: functional, organism-based
# Oryza sativa [19] = experiment: Phytotoxicity against two-leaf stage Oryza sativa cv. Nihonbare (rice) planted 1 cm depth measured after […]; format: organism-based; details: in vivo
# Echinochloa oryzicola [20] = experiment: Herbicidal activity against Echinochloa oryzicola at 500 g /ha treated at 1.5 to 2-leaf stage measured after 26 days by outdoor concrete pot test; format: functional, organism-based
# Echinochloa oryzicola [21] = experiment: Herbicidal activity against Echinochloa oryzicola under greenhouse condition assessed as growth inhibition at 500 g /ha measured after 33 days; format: functional, organism-based
# Echinochloa oryzicola [22] = experiment: Herbicidal activity against Echinochloa oryzicola grown in water-drained pot under greenhouse condition assessed as growth inhibition at 125 g /ha measured after 27 days; format: functional, organism-based
# Lindernia procumbens [23] = experiment: Herbicidal activity against Lindernia procumbens at 1000 g /ha treated at 1 to 2-pairs of leaf stage measured after 26 days by outdoor concrete pot test; format: functional, organism-based
# Echinochloa oryzicola [24] = experiment: Herbicidal activity against Echinochloa oryzicola under greenhouse condition assessed as growth inhibition at 250 g /ha measured after 6 days; format: functional, organism-based
# Rotala indica [25] = experiment: Herbicidal activity against Rotala indica at 1000 g /ha treated at 1 to 2-pairs of leaf stage measured after 26 days by outdoor concrete pot test; format: functional, organism-based
# Cyperus serotinus [26] = experiment: Herbicidal activity against Cyperus serotinus at 250 g /ha treated at 1 to 1.5-leaf stage measured after 26 days by outdoor concrete pot test; format: functional, organism-based
# Lindernia procumbens [27] = experiment: Herbicidal activity against Lindernia procumbens at 250 g /ha treated at 1 to 2-pairs of leaf stage measured after 26 days by outdoor concrete pot test; format: functional, organism-based
# Echinochloa oryzicola [28] = experiment: Herbicidal activity against Echinochloa oryzicola grown in water-drained pot under greenhouse condition assessed as growth inhibition at 500 g /ha measured after 20 days; format: functional, organism-based
# Echinochloa oryzicola [29] = experiment: Herbicidal activity against Echinochloa oryzicola under greenhouse condition assessed as time duration of residual effect at 500 g /ha; format: functional
# [30] = system: Schoenoplectiella juncoides; experiment: Herbicidal activity against Schoenoplectiella juncoides at 500 g /ha treated at 1.5 to 2.1-leaf stage measured after 26 days by outdoor concrete pot test; format: functional, organism-based
# Oryza sativa [31] = experiment: Phytotoxicity against two-leaf stage Oryza sativa cv. Nihonbare (rice) planted 3 cm depth measured after […]; format: organism-based; details: in vivo
# Echinochloa oryzicola [32] = experiment: Herbicidal activity against Echinochloa oryzicola under greenhouse condition assessed as growth inhibition at 500 g /ha measured after 42 days; format: functional, organism-based
# Lindernia procumbens [33] = experiment: Herbicidal activity against Lindernia procumbens at 500 g /ha treated at 1 to 2-pairs of leaf stage measured after 26 days by outdoor concrete pot test; format: functional, organism-based
# [34] = system: Schoenoplectiella juncoides; experiment: Herbicidal activity against Schoenoplectiella juncoides at 1000 g /ha treated at 1.5 to 2.1-leaf stage measured after 26 days by outdoor concrete pot test; format: functional, organism-based
# Echinochloa oryzicola [35] = experiment: Herbicidal activity against Echinochloa oryzicola under greenhouse condition assessed as growth inhibition at 500 g /ha measured after 20 days; format: functional, organism-based
# [36] = system: Schoenoplectiella juncoides; experiment: Herbicide activity against Schoenoplectiella juncoides under greenhouse condition compound treated at emergence-stage measured after 14 to 20 days; format: functional
# Echinochloa oryzicola [37] = experiment: Herbicidal activity against Echinochloa oryzicola under greenhouse condition assessed as growth inhibition at 500 g /ha measured after 6 days; format: functional, organism-based
# Echinochloa oryzicola [38] = experiment: Herbicidal activity against Echinochloa oryzicola grown in water-drained pot under greenhouse condition assessed as time duration of residual effect at 125 g /ha; format: functional
# Echinochloa oryzicola [39] = experiment: Herbicidal activity against Echinochloa oryzicola under greenhouse condition assessed as growth inhibition at 1000 g /ha measured after 42 days; format: functional, organism-based
# Echinochloa oryzicola [40] = experiment: Herbicidal activity against Echinochloa oryzicola under greenhouse condition assessed as growth inhibition at 1000 g /ha measured after 6 days; format: functional, organism-based
# Cyperus serotinus [41] = experiment: Herbicidal activity against Cyperus serotinus at 500 g /ha treated at 1 to 1.5-leaf stage measured after 26 days by outdoor concrete pot test; format: functional, organism-based
# Echinochloa oryzicola [42] = experiment: Herbicidal activity against Echinochloa oryzicola under greenhouse condition assessed as growth inhibition at 1000 g /ha measured after 27 days; format: functional, organism-based
# Echinochloa oryzicola [43] = experiment: Herbicidal activity against Echinochloa oryzicola under greenhouse condition assessed as growth inhibition at 125 g /ha measured after 13 days; format: functional, organism-based
# Echinochloa oryzicola [44] = experiment: Herbicidal activity against Echinochloa oryzicola grown in water-drained pot under greenhouse condition assessed as growth inhibition at 500 g /ha measured after 42 days; format: functional, organism-based
# Sagittaria pygmaea [45] = experiment: Herbicidal activity against Sagittaria pygmaea at 500 g /ha treated at 0.5 to 1-leaf stage measured after 26 days by outdoor concrete pot test; format: functional, organism-based
compound,measurement,setting,value
CC1=C(c2ccccc2)C(=O)N(C(C)(C)c2nc3ccccc3s2)C1,MED,Echinochloa oryzicola [1],0.313 g/acre
same,growth inhibition (GI),Echinochloa oryzicola [2],Active
same,growth inhibition (GI),Echinochloa oryzicola [3],Active
same,growth inhibition (GI),Sagittaria pygmaea [4],Active
same,growth inhibition (GI),Echinochloa oryzicola [5],Active
same,MED,Echinochloa oryzicola [6],1.25 g/acre
same,growth inhibition (GI),Echinochloa oryzicola [7],inactive
same,growth inhibition (GI),Echinochloa oryzicola [8],Active
same,growth inhibition (GI),Pontederia vaginalis [9],inactive
same,growth inhibition (GI),Echinochloa oryzicola [10],Active
same,growth inhibition (GI),Cyperus serotinus [11],Active
same,growth inhibition (GI),Pontederia vaginalis [12],Active
same,growth inhibition (GI),Echinochloa oryzicola [13],Active
same,growth inhibition (GI),Echinochloa oryzicola [14],Active
same,growth inhibition (GI),Rotala indica [15],Active
same,Time,Echinochloa oryzicola [16],30 days
same,growth inhibition (GI),Echinochloa oryzicola [17],Active
same,growth inhibition (GI),Elatine triandra,Active
same,growth inhibition (GI),Echinochloa oryzicola [18],Active
same,MTD,Oryza sativa [19],2.5 g/acre
same,growth inhibition (GI),Echinochloa oryzicola [20],Active
same,growth inhibition (GI),Echinochloa oryzicola [21],Active
same,growth inhibition (GI),Echinochloa oryzicola [22],inactive
same,growth inhibition (GI),Lindernia procumbens [23],Active
same,growth inhibition (GI),Echinochloa oryzicola [24],Active
same,growth inhibition (GI),Rotala indica [25],Active
same,growth inhibition (GI),Cyperus serotinus [26],Active
same,growth inhibition (GI),Lindernia procumbens [27],Active
same,growth inhibition (GI),Echinochloa oryzicola [28],Active
same,Time,Echinochloa oryzicola [29],>42 days
same,growth inhibition (GI),[30],inactive
same,MTD,Oryza sativa [31],10 g/acre
same,growth inhibition (GI),Echinochloa oryzicola [32],Active
same,growth inhibition (GI),Lindernia procumbens [33],Active
same,growth inhibition (GI),[34],inactive
same,growth inhibition (GI),Echinochloa oryzicola [35],Active
same,MED,[36],20 g/acre
same,growth inhibition (GI),Echinochloa oryzicola [37],Active
same,Time,Echinochloa oryzicola [38],27 days
same,growth inhibition (GI),Echinochloa oryzicola [39],Active
same,growth inhibition (GI),Echinochloa oryzicola [40],Active
same,growth inhibition (GI),Cyperus serotinus [41],Active
same,growth inhibition (GI),Echinochloa oryzicola [42],Active
same,growth inhibition (GI),Echinochloa oryzicola [43],Active
same,growth inhibition (GI),Echinochloa oryzicola [44],inactive
same,growth inhibition (GI),Sagittaria pygmaea [45],Active
